Source: ChEMBL document CHEMBL1146902, “Antifungal anthraquinones from Saprosma fragrans” (2006)
Values after ≈ are worked out from the molar mass of the structure shown.

Legend:
Aspergillus fumigatus = assay: Antifungal activity against Aspergillus fumigatus; assay type: functional
Cryptococcus neoformans = assay: Antifungal activity against Cryptococcus neoformans; assay type: functional
Candida albicans = assay: Antifungal activity against Candida albicans; assay type: functional
Trichophyton benhamiae = assay: Antifungal activity against Trichophyton mentagrophytes; assay type: functional, Arthroderma benhamiae
Sporothrix schenckii = assay: Antifungal activity against Sporothrix schenckii; assay type: functional

COc1c(C=O)c(O)c(O)c2c1C(=O)c1ccccc1C2=O
MIC (Aspergillus fumigatus): > 100 µg/mL | MIC (Cryptococcus neoformans): 50 µg/mL (≈ 168 µM) | MIC (Candida albicans): 50 µg/mL (≈ 168 µM) | MIC (Trichophyton benhamiae): 12.5 µg/mL (≈ 41.9 µM) | MIC (Sporothrix schenckii): 25 µg/mL (≈ 83.8 µM)

Clc1ccccc1C(c1ccccc1)(c1ccccc1)n1ccnc1 [CLOTRIMAZOLE]
MIC (Aspergillus fumigatus): 1.56 µg/mL (≈ 4.52 µM) | MIC (Cryptococcus neoformans): 0.09 µg/mL (≈ 0.261 µM) | MIC (Candida albicans): 3.1 µg/mL (≈ 8.99 µM) | MIC (Trichophyton benhamiae): 0.39 µg/mL (≈ 1.13 µM) | MIC (Sporothrix schenckii): 1.56 µg/mL (≈ 4.52 µM)

COc1c(C=O)c(O)cc2c1C(=O)c1ccccc1C2=O [DAMNACANTHAL]
MIC (Aspergillus fumigatus): 50 µg/mL (≈ 177 µM) | MIC (Cryptococcus neoformans): 12.5 µg/mL (≈ 44.3 µM) | MIC (Candida albicans): 50 µg/mL (≈ 177 µM) | MIC (Trichophyton benhamiae): 1.56 µg/mL (≈ 5.53 µM) | MIC (Sporothrix schenckii): 6.25 µg/mL (≈ 22.1 µM)
